Common to all, as to type: cell-based, mouse
Data set [1] has as its system Otulin, Dusp6 and Nf1 knockout B16F10 cells. Kind of data set: Doxorubicin-induced cell death. To be noted: Dusp6 or Nf1 inactivated B16F10-Cas9 cells vs control cells, 24 or 48 hours.
Description: The knockout cell lines (GFP+) were mixed with control cells (GFP−) at 1:1 ratio. The mixture of cells was then seeded at 200,000 cells/well in a 6-well plate. Eighteen hours after seeding, different doses of doxorubicin (Sigma-Aldrich, D1515) as indicated in FIG. 11 were added to the cell culture (triplicate wells per condition). After 24 or 48 hours, cells were harvested and stained with DAPI (5 μg/ml) for 5 minutes in PBS with 2% FBS at room temperature. The ratio of GFP+/GFP−was determined by FACS (gated on DAPI− for live cells).
The subject of data set [2] is B16F10-Cas9 cells pulsed with SIINFEKL peptide, co-cultured with OT-I T cells. Briefly: Genome-scale CRISPR-Cas9 screen, selection with OT-I T cells. As to conditions: Table 3; B16F10-Cas9 cells pulsed with SIINFEKL, co-cultured with OT-I T cells 1:1 for one day; negative = depleted, positive = enriched.
In data set [3] the test system is B16F10-Cas9 cells co-cultured with Pmel-1 T cells. Kind of data set: Genome-scale CRISPR-Cas9 screen, selection with Pmel-1 T cells. To be noted: Table 3; B16F10-Cas9 cells pre-treated with IFNγ, co-cultured with Pmel-1 T cells 1:1 for three days; negative = depleted, positive = enriched.
The next data set has as its system B16F10-Cas9 cells. Briefly: PD-L1 expression by FACS after IFNγ stimulation (Cas9 editing efficiency of B16F10-Cas9 clones). To be noted: B16F10 tumor cells, IFNγ 10 ng/ml for 24 hours. How it is done:
To acquire clones with high Cas9 activity, B16F10-Cas9 cells were single-cell sorted into 96-well plates. Multiple were infected with lentivirus driving expression of a gRNA specific for Cd274 and mCherry. Ten days post-infection, each individual clone was stimulated with 10 ng/ml of IFNγ for 24 hours and the expression of PD-L1 was determined by fluorescence-activated cells sorting (FACS) using an anti-Cd274 antibody (clone 10F.9G2, BioLegend, #124311). Cas9 efficiency was determined by the percentage of PD-L1 negative cells in the transduced (mCherry+) population.
Background: In flow cytometry, cells or beads pass a laser one at a time.

For `COc1cccc2c1C(=O)c1c(O)c3c(c(O)c1C2=O)C[C@@](O)(C(=O)CO)C[C@@H]3O[C@H]1C[C@H](N)[C@H](O)[C@H](C)O1` [doxorubicin], the “sensitivity to doxorubicin induced cell death” value in data set [1] is “did not render them more sensitive”.

Regarding “CGATGCCATTCGAATGACAG (chemistry not fully specified)”, in data set [2], the “OT1 (sgRNA Log(2) fold change, OT-I selection versus control T cells)” value came out at 1.57. The “Pmel+ (sgRNA Log(2) fold change, Pmel-1 selection versus control T cells)” value in data set [3] is 8.40.

On to “TCCGAACCGAATCATCACTG (chemistry not fully specified)”, for which the “OT1 (sgRNA Log(2) fold change, OT-I selection versus control T cells)” value in data set [2] is 3.59. Besides, the “Pmel+ (sgRNA Log(2) fold change, Pmel-1 selection versus control T cells)” value in data set [3] is 10.23.

On to “CGGCCCGCCGATGTCGTGTG (chemistry not fully specified)”, for which the “OT1 (sgRNA Log(2) fold change, OT-I selection versus control T cells)” value in data set [2] was -3.19. For the same molecule, the “Pmel+ (sgRNA Log(2) fold change, Pmel-1 selection versus control T cells)” value in data set [3] was -0.25.

For the molecule “TATGTGGAGCATAACCGGAG (chemistry not fully specified)”, in data set [2], the “OT1 (sgRNA Log(2) fold change, OT-I selection versus control T cells)” value was determined as 2.95. The “Pmel+ (sgRNA Log(2) fold change, Pmel-1 selection versus control T cells)” value in data set [3] came to 3.80.

Take “TGTTCTAGGAAACTACATGG (chemistry not fully specified)”: in data set [2], the “OT1 (sgRNA Log(2) fold change, OT-I selection versus control T cells)” value is reported as -2.76. For the same molecule, the “Pmel+ (sgRNA Log(2) fold change, Pmel-1 selection versus control T cells)” value in data set [3] was found to be 1.10.

“CCGAGACCCCAATAGTGCAA (chemistry not fully specified)”: in data set [2], the “OT1 (sgRNA Log(2) fold change, OT-I selection versus control T cells)” value was 0.71. Moreover, in data set [3], the “Pmel+ (sgRNA Log(2) fold change, Pmel-1 selection versus control T cells)” value came to 2.89.

In the case of “GTCTCTAGCAAAGTCCACGC (chemistry not fully specified)”, the “OT1 (sgRNA Log(2) fold change, OT-I selection versus control T cells)” value in data set [2] is given as -0.40. Further, the “Pmel+ (sgRNA Log(2) fold change, Pmel-1 selection versus control T cells)” value in data set [3] turned out to be 3.25.

Consider “TTACACGACCCGAATAGCGA (chemistry not fully specified)”, for which the “OT1 (sgRNA Log(2) fold change, OT-I selection versus control T cells)” value in data set [2] is recorded as -2.14. For the same molecule, the “Pmel+ (sgRNA Log(2) fold change, Pmel-1 selection versus control T cells)” value in data set [3] is 3.22.

Turning to “CCATATCCAAATAGCCACAG (chemistry not fully specified)”, the “OT1 (sgRNA Log(2) fold change, OT-I selection versus control T cells)” value in data set [2] is recorded as -3.59. Besides, the “Pmel+ (sgRNA Log(2) fold change, Pmel-1 selection versus control T cells)” value in data set [3] is -2.19.

As for “GGACAAGACATGGAGACAGA (chemistry not fully specified)”, in data set [2], the “OT1 (sgRNA Log(2) fold change, OT-I selection versus control T cells)” value is -2.11. Besides, the “Pmel+ (sgRNA Log(2) fold change, Pmel-1 selection versus control T cells)” value in data set [3] was 0.83.

For “ATGTTGCCATCGTCACTGCA (chemistry not fully specified)”, the “OT1 (sgRNA Log(2) fold change, OT-I selection versus control T cells)” value in data set [2] amounted to 0.41. Moreover, in data set [3], the “Pmel+ (sgRNA Log(2) fold change, Pmel-1 selection versus control T cells)” value was determined as 3.04.

For the molecule “AGTTGGATCGCGAATAAAGA (chemistry not fully specified)”, the “OT1 (sgRNA Log(2) fold change, OT-I selection versus control T cells)” value in data set [2] is listed as -2.70. Further, the “Pmel+ (sgRNA Log(2) fold change, Pmel-1 selection versus control T cells)” value in data set [3] is -2.35.

“AAGACATATAGTTATCAGCA (chemistry not fully specified)”: in data set [2], the “OT1 (sgRNA Log(2) fold change, OT-I selection versus control T cells)” value is recorded as -2.22. In data set [3], the “Pmel+ (sgRNA Log(2) fold change, Pmel-1 selection versus control T cells)” value is listed as -1.83.

Regarding “GACAAGATGACAAACCTGGT (chemistry not fully specified)”, the “OT1 (sgRNA Log(2) fold change, OT-I selection versus control T cells)” value in data set [2] is listed as 1.65. The “Pmel+ (sgRNA Log(2) fold change, Pmel-1 selection versus control T cells)” value in data set [3] came out at 3.45.

Take “CCTTCAATAACGTTAAACAG (chemistry not fully specified)”: in data set [2], the “OT1 (sgRNA Log(2) fold change, OT-I selection versus control T cells)” value was -2.79. In addition, the “Pmel+ (sgRNA Log(2) fold change, Pmel-1 selection versus control T cells)” value in data set [3] is given as -0.26.

Take “TGTGAATGCTATGACGAGCT (chemistry not fully specified)”: the “OT1 (sgRNA Log(2) fold change, OT-I selection versus control T cells)” value in data set [2] was -2.59. Further, in data set [3], the “Pmel+ (sgRNA Log(2) fold change, Pmel-1 selection versus control T cells)” value came out at 0.02.

As to “TCCCTTTGATGTGTTCCACG (chemistry not fully specified)”, the “OT1 (sgRNA Log(2) fold change, OT-I selection versus control T cells)” value in data set [2] turned out to be 3.40. Also, the “Pmel+ (sgRNA Log(2) fold change, Pmel-1 selection versus control T cells)” value in data set [3] is given as 4.23.

Consider “GGTATTCCCAGCATACGACA (chemistry not fully specified)”, for which, in data set [2], the “OT1 (sgRNA Log(2) fold change, OT-I selection versus control T cells)” value worked out at 3.32. Further, the “Pmel+ (sgRNA Log(2) fold change, Pmel-1 selection versus control T cells)” value in data set [3] is listed as 5.25.

Turning to “AGATTGTCAACAATGGAACT (chemistry not fully specified)”, the “OT1 (sgRNA Log(2) fold change, OT-I selection versus control T cells)” value in data set [2] is on record as -2.17. In addition, the “Pmel+ (sgRNA Log(2) fold change, Pmel-1 selection versus control T cells)” value in data set [3] is reported as 0.00.

Consider “ATGCAGATAATCCGCCAAAG (chemistry not fully specified)”, for which the “OT1 (sgRNA Log(2) fold change, OT-I selection versus control T cells)” value in data set [2] is -2.49. Besides, the “Pmel+ (sgRNA Log(2) fold change, Pmel-1 selection versus control T cells)” value in data set [3] was 0.00.

In the case of “TCACTGCGTACGCGTCACTG (chemistry not fully specified)”, the “OT1 (sgRNA Log(2) fold change, OT-I selection versus control T cells)” value in data set [2] was -3.44. Also, the “Pmel+ (sgRNA Log(2) fold change, Pmel-1 selection versus control T cells)” value in data set [3] was found to be 0.81.

As to “CCTCCGACATTCCGTAACTG (chemistry not fully specified)”, the “OT1 (sgRNA Log(2) fold change, OT-I selection versus control T cells)” value in data set [2] was -2.32. Also, the “Pmel+ (sgRNA Log(2) fold change, Pmel-1 selection versus control T cells)” value in data set [3] was -1.90.

For the molecule “ACGACGAGGAGTTCGAATAC (chemistry not fully specified)”, the “OT1 (sgRNA Log(2) fold change, OT-I selection versus control T cells)” value in data set [2] is recorded as -2.76. Besides, in data set [3], the “Pmel+ (sgRNA Log(2) fold change, Pmel-1 selection versus control T cells)” value is -0.86.

Regarding “CAGCCTGCTGAGGATCCAGA (chemistry not fully specified)”, in data set [2], the “OT1 (sgRNA Log(2) fold change, OT-I selection versus control T cells)” value is reported as -2.33. Also, the “Pmel+ (sgRNA Log(2) fold change, Pmel-1 selection versus control T cells)” value in data set [3] was -1.07.

Regarding “CGACGCAAGTGGGAGCAGAG (chemistry not fully specified)”, the “OT1 (sgRNA Log(2) fold change, OT-I selection versus control T cells)” value in data set [2] is on record as -2.09. In addition, the “Pmel+ (sgRNA Log(2) fold change, Pmel-1 selection versus control T cells)” value in data set [3] amounted to 3.91.

Take “GAAGACCAAAGAAGTTCATG (chemistry not fully specified)”: the “OT1 (sgRNA Log(2) fold change, OT-I selection versus control T cells)” value in data set [2] is listed as -0.52. Further, in data set [3], the “Pmel+ (sgRNA Log(2) fold change, Pmel-1 selection versus control T cells)” value was 2.37.

Regarding “CACTGCGAGACCAATCTAGA (chemistry not fully specified)”, the “OT1 (sgRNA Log(2) fold change, OT-I selection versus control T cells)” value in data set [2] was 1.44. Also, the “Pmel+ (sgRNA Log(2) fold change, Pmel-1 selection versus control T cells)” value in data set [3] was determined as 2.24.

With “CCAAACACCCCACATATGGT (chemistry not fully specified)”, the “OT1 (sgRNA Log(2) fold change, OT-I selection versus control T cells)” value in data set [2] is given as -2.24. Further, in data set [3], the “Pmel+ (sgRNA Log(2) fold change, Pmel-1 selection versus control T cells)” value is recorded as -0.79.

On to “TACTGATCATAAACGAACCA (chemistry not fully specified)”, for which the “OT1 (sgRNA Log(2) fold change, OT-I selection versus control T cells)” value in data set [2] was -3.34. Also, the “Pmel+ (sgRNA Log(2) fold change, Pmel-1 selection versus control T cells)” value in data set [3] is given as 0.25.

For “ACTCGTACAGCTCCTGTGGT (chemistry not fully specified)”, in data set [2], the “OT1 (sgRNA Log(2) fold change, OT-I selection versus control T cells)” value was determined as 0.67. The “Pmel+ (sgRNA Log(2) fold change, Pmel-1 selection versus control T cells)” value in data set [3] turned out to be 2.62.

As for “CTTGTGACGGTAATTCTGAA (chemistry not fully specified)”, the “OT1 (sgRNA Log(2) fold change, OT-I selection versus control T cells)” value in data set [2] is listed as -2.48. Moreover, the “Pmel+ (sgRNA Log(2) fold change, Pmel-1 selection versus control T cells)” value in data set [3] is listed as 0.00.

As to “TCGGCTTCCCATTCTCCGGT (chemistry not fully specified)”, the “OT1 (sgRNA Log(2) fold change, OT-I selection versus control T cells)” value in data set [2] is given as 5.48. In addition, the “Pmel+ (sgRNA Log(2) fold change, Pmel-1 selection versus control T cells)” value in data set [3] is given as 4.33.

As to “GAATCCTCCAGAAGGAATCG (chemistry not fully specified)”, the “OT1 (sgRNA Log(2) fold change, OT-I selection versus control T cells)” value in data set [2] is 0.26. Further, the “Pmel+ (sgRNA Log(2) fold change, Pmel-1 selection versus control T cells)” value in data set [3] was determined as 2.99.

For the molecule “GGATCCTGGCGATTCAACAT (chemistry not fully specified)”, the “OT1 (sgRNA Log(2) fold change, OT-I selection versus control T cells)” value in data set [2] was -3.11. Moreover, in data set [3], the “Pmel+ (sgRNA Log(2) fold change, Pmel-1 selection versus control T cells)” value was determined as 0.74.

Take “GGTCATACTTAAAAGCACAA (chemistry not fully specified)”: the “OT1 (sgRNA Log(2) fold change, OT-I selection versus control T cells)” value in data set [2] is -2.07. In addition, the “Pmel+ (sgRNA Log(2) fold change, Pmel-1 selection versus control T cells)” value in data set [3] is reported as -0.81.

B1: IFNγ: cytokine used to stimulate B16F10 cells (protein, UniProt P01580 23-155, looked up)
Interferon gamma: HGTVIESLESLNNYFNSSGIDVEEKSLFLDIWRNWQKDGDMKILQSQIISFYLRLFEVLKDNQAISNNISVIESHLITTFFSNSKAKKDAFMSIAKFEVNNPQVQRQAFNELIRVVHQLLPESSLRKRKRSRC
As to B1, in the data set on B16F10-Cas9 cells, the PD-L1 expression entry is recorded as “strong upregulation”.

Source of the values: US11820822B2, “Methods for sensitizing cancer cells to T cell-mediated killing by modulating molecular pathways” (DANA-FARBER CANCER INSTITUTE, INC., priority 2017, dated 2023).
